# Test system: RIV aptamer (DNA, aptamer) TAGGGAAGAGAAGGACATATGATGACTCACAACTGGACGAACGTACTTATCCCCCCCAATCACTAGTGAATT
# Experiment: square-wave voltammetry aptasensor
# Conditions: K+ 0.01 M (KCl); [Fe(CN)6]3−/4−; concentration tested not stated
row,SMILES,binding
1,OC[C@H]1OC(O)[C@H](O)[C@@H](O)[C@@H]1O (some centres unmarked),no
2,N=C(N)NCCC[C@H](N)C(=O)O,weak
3,N[C@@H](CS)C(=O)O,weak

# The remaining lines, values ahead:
row,binding,SMILES
1,weak,O=C(O)[C@@H]1CCCN1
2,no,NCC(=O)O
